# From US20170029841A1, “METHODS AND COMPOSITIONS FOR SELECTIVE REGULATION OF PROTEIN EXPRESSION” (priority 2015, published 2017)
# System: maize tissue pools (tassel, ear, leaf, root, stem)
# Assay: siRNA profiling microarray assay of mts-siRNA sequences across maize tissues
# Settings: for 01DKD2 V8-V9 Tassel relative signal value: germplasm 01DKD2, V8-V9 tassel; for 01DKD2 V10-V12 Tassel relative signal value: germplasm 01DKD2, V10-V12 tassel; for 01DKD2 Other Tissue relative signal value: germplasm 01DKD2, combined signals from other tissue; for LH244 V8-V9 Tassel relative signal value: germplasm LH244, V8-V9 tassel; for LH244 V10-V12 Tassel relative signal value: germplasm LH244, V10-V12 tassel; for LH244 Other Tissue relative signal value: germplasm LH244, combined signals from other tissue
# Procedure: A siRNA profiling microarray assay was performed using μParaflo® Microfluidics chips provided by LC Sciences LLC (Houston, Tex., USA) with 1,200 sequences selected from the thousands of mts-siRNA sequences identified from the differential bioinformatic analysis. The microarray chips contained triplicate probes of the complementary sequence for each of the 1,200 mts-siRNA sequences. Total RNA was purified from 26 maize tissue pools (duplicate or triplicate tissue pools) from either LH244 (ATCC deposit number PTA-1173) or 01DKD2 (I294213) (ATCC deposit number PTA-7859) inbred plants. Each of the 26 RNA samples were hybridized with the microarray chips that contain probes for the 1,200 mts-siRNA. Hybridization images were collected using a GenePix® 4000B laser scanner (Molecular Devices, Sunnyvale, Calif.) and digitized using Array-Pro® Analyzer image analysis software (Media Cybernetics, Rockville, Md.). Relative signal values were derived by background subtraction and normalization. Differentially expressed signals were determined by t-test with p<0.05. From the microarray analysis, about 500 mts-siRNA from the 1,200 were identified as being highly tassel-specific.
# Selected mts-siRNA sequences aligning to one of the six cDNA sequences were used for further microarray analysis to determine differential expression across maize tissues. Microarray analysis for mts-siRNA sequences of normalized signal values for V8-V9 tassel, V10-V12 tassel, or combined signals from the other tissue for maize germplasm LH244 and 01DKD2 is presented in Tables 3-10. […] Signal value results are measured as relative signal values and standard error (p<0.05) is represented by (STDR). […] The mts-siRNA sequence corresponds to the sense or antisense strand of the corresponding mts-siRNA target sequence in the cDNA sequence. The mts-siRNA sequence may have a single nucleotide, a two nucleotide, or a three nucleotide mismatch with the aligned portion of the cDNA sequence, and the mts-siRNA sequence may align to the sense strand or antisense strand of the cDNA sequence. The mts-siRNA sequences provided here are found across different maize germplasms.
Substance,01DKD2 V8-V9 Tassel relative signal value,01DKD2 V10-V12 Tassel relative signal value,01DKD2 Other Tissue relative signal value,LH244 V8-V9 Tassel relative signal value,LH244 V10-V12 Tassel relative signal value,LH244 Other Tissue relative signal value
SEQ ID NO: 85: mts-siRNA sequence aligning to cDNA SEQ ID NO: 22 (CAAGGCAAGAAGGTGCTTGTTGT; expressed or natural sequence),2.5,246,2.5,184,310,2.8
SEQ ID NO: 52: mts-siRNA sequence aligning to cDNA SEQ ID NO: 19 (CTGATATCTATGCTAATTCAGG; expressed or natural sequence),234,3286.5,3.5,4080,3629.7,5.5
SEQ ID NO: 23: mts-siRNA sequence aligning to cDNA SEQ ID NO: 17 (CATCACCATGCACGGTCGTCGT; expressed or natural sequence),27,318,4.3,183.5,514,2.6
SEQ ID NO: 25: mts-siRNA sequence aligning to cDNA SEQ ID NO: 17 (ACGACCGTGCATGGTGAT; expressed or natural sequence),56,440,2.3,289,824.3,2.6
SEQ ID NO: 45: mts-siRNA sequence aligning to cDNA SEQ ID NO: 19 (TAAATGGTCGTCGTATTAGCTGAT; expressed or natural sequence),253,7195.5,5.8,7901,9982.3,8.2
SEQ ID NO: 51: mts-siRNA sequence aligning to cDNA SEQ ID NO: 19 (TGCCGAAGTGTGTCGTGACATTGG; expressed or natural sequence),24.5,275.5,40,158,287,34.3
SEQ ID NO: 77: mts-siRNA sequence aligning to cDNA SEQ ID NO: 22 (AAGGCAAGAAGGTGCTTGTTGTC; expressed or natural sequence),0.5,225,2.5,180.5,302.7,4.1
SEQ ID NO: 54: mts-siRNA sequence aligning to cDNA SEQ ID NO: 20 (CATCGTCGTGCAGCTGGT; expressed or natural sequence),56,231,19.5,100.5,172,14.2
SEQ ID NO: 33: mts-siRNA sequence aligning to cDNA SEQ ID NO: 18 (AGGGTGAATCGGATGTTGAGGTGG; expressed or natural sequence),4.5,648.5,2.8,111.5,1032.7,17.8
SEQ ID NO: 56: mts-siRNA sequence aligning to cDNA SEQ ID NO: 20 (TACACAGTGTCGTCCTCTTCGT; expressed or natural sequence),138.5,599.5,19.3,261,692,49.5
SEQ ID NO: 48: mts-siRNA sequence aligning to cDNA SEQ ID NO: 19 (AAAGTAGCTAACGACCACACCACC; expressed or natural sequence),9.5,470.5,1,221,720.3,4.8
SEQ ID NO: 43: mts-siRNA sequence aligning to cDNA SEQ ID NO: 19 (AGCACTCGAGCTTTCACGCCAACA; expressed or natural sequence),4,190.5,4.3,52.5,147.3,1
SEQ ID NO: 41: mts-siRNA sequence aligning to cDNA SEQ ID NO: 18 (ACCCTTGCGCCTTAACTATCGTGC; expressed or natural sequence),5,752,3,185.5,702.7,0.9
SEQ ID NO: 65: mts-siRNA sequence aligning to cDNA SEQ ID NO: 21 (CGAATTGATTCCACCCATTCC; expressed or natural sequence),444.5,454.5,12,811.5,260.3,5.8
SEQ ID NO: 24: mts-siRNA sequence aligning to cDNA SEQ ID NO: 17 (ATCACCATGCACGGTCGT; expressed or natural sequence),16,174,3,104.5,322,7.7
SEQ ID NO: 34: mts-siRNA sequence aligning to cDNA SEQ ID NO: 18 (ACGTGCATATCGCCATCCTCTGCT; expressed or natural sequence),8.5,982,3.5,848.5,572.7,3
